Measured values published in ChEMBL document CHEMBL5247626, “In vitro and in vivo biological evaluation of newly synthesized multi-target 20(R)-panaxadiol derivatives for treating Alzheimer's disease” (Eur J Med Chem, 2022).
The source made the active and inactive calls. The rule behind the calls is not given here.

Assays:
[1] = C0 in Sprague-Dawley rat at 10 mg/kg,iv measured at 0.083 to 24 hrs post administration by LC-MS/MS analysis; type: ADME, organism-based; settings: in vivo, time 0.083-24 hrs
[2] = AUC (0-infinity) in Sprague-Dawley rat at 10 mg/kg,iv measured at 0.083 to 24 hrs post administration by LC-MS/MS analysis; type: ADME, organism-based; design: dose 10 mg/kg, time 0.083-24 hrs, route iv; settings: in vivo
[3] = MRT (0 to t) in Sprague-Dawley rat at 10 mg/kg,iv measured at 0.083 to 24 hrs post administration by LC-MS/MS analysis; type: ADME, organism-based; settings: in vivo, time 0.083-24 hrs
[4] = Clearance in Sprague-Dawley rat at 10 mg/kg,iv measured at 0.083 to 24 hrs post administration by LC-MS/MS analysis; type: ADME, organism-based; settings: in vivo, time 0.083-24 hrs
[5] = Half life in Sprague-Dawley rat at 60 mg/kg,po measured at 0.25 to 24 hrs post administration by LC-MS/MS analysis; type: ADME, organism-based; settings: in vivo, time 0.25-24 hrs
HepG2 [6] = assay: Cytotoxicity against human HepG2 cells assessed as effect on survival at < 60 uM incubated for 24 hrs by MTT assay; type: toxicity, cell-based; settings: hepg2, 24 h
N2a = assay: Cytotoxicity against mouse Neuro2a cells assessed as decrease in cell viability at 120 uM incubated for 24 hrs by MTT assay; type: toxicity, cell-based
HepG2 [7] = assay: Cytotoxicity against human HepG2 cells assessed as decrease in cell viability at 120 uM incubated for 24 hrs by MTT assay; type: toxicity, cell-based; settings: hepg2, 24 h
[8] = Cytotoxicity against mouse Neuro2a cells assessed as cell viability at 120 uM incubated for 24 hrs by MTT assay; type: toxicity, cell-based; settings: Neuro2a (N2a) cells, read-out: Activity
[9] = Cytotoxicity against human HepG2 cells assessed as cell viability at 120 uM incubated for 24 hrs by MTT assay; type: toxicity, cell-based; settings: read-out: Activity
[10] = target: Amyloid-beta precursor protein (Homo sapiens) (UniProt P05067); assay: Disaggregation of amyloid beta (25 to 35) (unknown origin) self aggregation at 15 uM incubated for 24 hrs by transmission electron microscopy analysis
PC-12 [11] = assay: Neuroprotective activity against amyloid beta (25 to 35)-induced rat PC12 cells assessed as decrease in tau hyperphosphorylation at Thr181 at 7.5 to 30 uM preincubated for 30 mins followed by amyloid beta (25 to 35) addition and measured after 24 hrs by western blot assay; type: functional, cell-based; settings: dose 7.5-30 µM, time 24.5 hrs
PC-12 [12] = assay: Neuroprotective activity against amyloid beta (25 to 35)-induced rat PC12 cells assessed as decrease in COX-2 expression level at 7.5 to 30 uM preincubated for 30 mins followed by amyloid beta (25 to 35) addition and measured after 24 hrs by western blot assay; type: functional, cell-based; settings: dose 7.5-30 µM, time 24.5 hrs
PC-12 [13] = assay: Neuroprotective activity against amyloid beta (25 to 35)-induced rat PC12 cells assessed as decrease in p38 expression level at 7.5 to 30 uM preincubated for 30 mins followed by amyloid beta (25 to 35) addition and measured after 24 hrs by western blot assay; type: functional, cell-based; settings: dose 7.5-30 µM, time 24.5 hrs
PC-12 [14] = assay: Neuroprotective activity against amyloid beta (25 to 35)-induced rat PC12 cells assessed as decrease in p38 phosphorylation level at 7.5 to 30 uM preincubated for 30 mins followed by amyloid beta (25 to 35) addition and measured after 24 hrs by western blot assay; type: functional, cell-based; settings: dose 7.5-30 µM, time 24.5 hrs
PC-12 [15] = assay: Neuroprotective activity against amyloid beta (25 to 35)-induced rat PC12 cells assessed as decrease in JNK phosphorylation level at 7.5 to 30 uM preincubated for 30 mins followed by amyloid beta (25 to 35) addition and measured after 24 hrs by western blot assay; type: functional, cell-based; settings: dose 7.5-30 µM, time 24.5 hrs
PC-12 [16] = assay: Neuroprotective activity against amyloid beta (25 to 35)-induced rat PC12 cells assessed as decrease in NF-kappaB expression level at 7.5 to 30 uM preincubated for 30 mins followed by amyloid beta (25 to 35) addition and measured after 24 hrs by western blot assay; type: functional, cell-based; settings: dose 7.5-30 µM, time 24.5 hrs
Mus musculus [17] = assay: Antialzheimer activity against amyloid beta (25 to 35)-induced cognitive deficit ICR mouse model assessed as attenuation of behavioral deficit at 50 mg/kg,po observed after 12 to 15 days of administration by Y maze test; type: functional, organism-based; settings: time 12-15 day
Mus musculus [18] = assay: Antialzheimer activity against amyloid beta (25 to 35)-induced cognitive deficit ICR mouse model assessed as increase in discrimination index at 25 mg/kg,po observed after 1 hr of administration by novel object recognition test; type: functional, organism-based
Mus musculus [19] = assay: Antialzheimer activity against amyloid beta (25 to 35)-induced cognitive deficit ICR mouse model assessed as increase in discrimination index at 50 mg/kg,po observed after 1 hr of administration by novel object recognition test; type: functional, organism-based
Mus musculus [20] = assay: Antialzheimer activity against amyloid beta (25 to 35)-induced cognitive deficit ICR mouse model assessed as increase in preferential index at 25 mg/kg,po observed after 1 hr of administration by novel object recognition test; type: functional, organism-based
Mus musculus [21] = assay: Antialzheimer activity against amyloid beta (25 to 35)-induced cognitive deficit ICR mouse model assessed as increase in preferential index at 50 mg/kg,po observed after 1 hr of administration by novel object recognition test; type: functional, organism-based
Mus musculus [22] = assay: Antialzheimer activity against amyloid beta (25 to 35)-induced cognitive deficit ICR mouse model assessed as increase in discrimination index at 25 mg/kg,po observed after 24 hrs of administration by novel object recognition test; type: functional, organism-based
Mus musculus [23] = assay: Antialzheimer activity against amyloid beta (25 to 35)-induced cognitive deficit ICR mouse model assessed as increase in discrimination index at 50 mg/kg,po observed after 24 hrs of administration by novel object recognition test; type: functional, organism-based
Mus musculus [24] = assay: Antialzheimer activity against amyloid beta (25 to 35)-induced spatial memory deficit ICR mouse model assessed as increase in exploration time spent at 50 mg/kg,po observed at 16 to 20 days of administration by morris water maze test; type: functional, organism-based; settings: time 16-20 day
Mus musculus [25] = assay: Antialzheimer activity against amyloid beta (25 to 35)-induced spatial memory deficit ICR mouse model assessed as increase in distance travelled in target quadrant at 50 mg/kg,po observed at 16 to 20 days of administration by morris water maze test; type: functional, organism-based; settings: time 16-20 day
Mus musculus [26] = assay: Antialzheimer activity against amyloid beta (25 to 35)-induced brain injury ICR mouse model assessed as attenuation of pathological change in hippocampal CAl region at 12.5 to 50 mg/kg,po administrated for 21 days by hematoxylin and eosin staining based microscopic analysis; type: functional, organism-based; settings: dose 12.5-50 mg/kg, time 21.0 day
Mus musculus [27] = assay: Antialzheimer activity against amyloid beta (25 to 35)-induced brain injury ICR mouse model assessed as increase in NeuN expression level in hippocampal CA1 region at 50 mg/kg,po administrated for 21 days by immunohistochemistry analysis; type: functional, organism-based; settings: time 21.0 day
Mus musculus [28] = assay: Antialzheimer activity against amyloid beta (25 to 35)-induced brain injury ICR mouse model assessed as increase in NeuN expression level in hippocampal CA3 region at 50 mg/kg,po administrated for 21 days by immunohistochemistry analysis; type: functional, organism-based; settings: time 21.0 day
[29] = Toxicity in ICR mouse assessed as pathological changes in spleen at 12.5 to 50 mg/kg,po administrated for 20 days by hematoxylin and eosin staining based microscopic analysis; type: organism-based; settings: in vivo, 480 h, dose 12.5-50 mg/kg, time 20 day

Chain of Amyloid-beta precursor protein (Homo sapiens) (P05067 whole entry): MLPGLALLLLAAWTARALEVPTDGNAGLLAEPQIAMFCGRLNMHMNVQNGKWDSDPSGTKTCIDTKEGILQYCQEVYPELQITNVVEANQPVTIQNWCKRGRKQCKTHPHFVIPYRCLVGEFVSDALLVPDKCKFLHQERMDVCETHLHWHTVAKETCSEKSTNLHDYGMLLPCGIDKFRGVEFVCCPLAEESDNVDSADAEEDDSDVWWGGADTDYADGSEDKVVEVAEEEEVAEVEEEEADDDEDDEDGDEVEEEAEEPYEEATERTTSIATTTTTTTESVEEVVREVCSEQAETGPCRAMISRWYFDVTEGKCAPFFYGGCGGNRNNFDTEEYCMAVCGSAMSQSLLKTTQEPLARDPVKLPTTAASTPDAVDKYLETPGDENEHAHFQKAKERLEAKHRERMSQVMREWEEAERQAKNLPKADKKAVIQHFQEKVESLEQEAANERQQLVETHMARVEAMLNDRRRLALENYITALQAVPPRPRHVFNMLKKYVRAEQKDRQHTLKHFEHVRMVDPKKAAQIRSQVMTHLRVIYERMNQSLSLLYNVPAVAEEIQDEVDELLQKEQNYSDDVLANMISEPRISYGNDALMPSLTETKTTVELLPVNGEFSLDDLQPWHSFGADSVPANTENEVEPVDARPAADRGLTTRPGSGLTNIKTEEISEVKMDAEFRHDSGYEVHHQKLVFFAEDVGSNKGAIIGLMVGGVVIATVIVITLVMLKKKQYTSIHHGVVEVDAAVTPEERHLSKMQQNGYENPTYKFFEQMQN

## CC1(C)CCC[C@](C)([C@H]2CC[C@]3(C)[C@@H]2[C@H](O)C[C@@H]2[C@@]4(C)CC[C@H](OC(=O)NCc5ccccc5)C(C)(C)[C@@H]4CC[C@]23C)O1
[1]
  C0: 237 µg/mL
[2]
  AUC(0-inf): 40700 ng·h/mL
[3]
  MRT last: 25.6 min
[4]
  clearance: 4.29 mL/min/kg
[5]
  half-life: 49 min
HepG2 [6]
  Activity: Non-Toxic
N2a
  Activity: Toxic
HepG2 [7]
  Activity: Toxic
[8]
  viability at 24 h, 120 µM: > 50%
[9]
  viability at 24 h, 120 µM: > 50%
[10]
  Activity: Active
PC-12 [11]
  Activity: Active
PC-12 [12]
  Activity: Active
PC-12 [13]
  Activity: Active
PC-12 [14]
  Activity: Active
PC-12 [15]
  Activity: Active
PC-12 [16]
  Activity: Active
Mus musculus [17]
  Activity: Active
Mus musculus [18]
  Activity: inactive
Mus musculus [19]
  Activity: inactive
Mus musculus [20]
  Activity: inactive
Mus musculus [21]
  Activity: inactive
Mus musculus [22]
  Activity: Active
Mus musculus [23]
  Activity: Active
Mus musculus [24]
  Activity: Active
Mus musculus [25]
  Activity: Active
Mus musculus [26]
  Activity: Active
Mus musculus [27]
  Activity: Active
Mus musculus [28]
  Activity: Active
[29]
  Activity: Non-Toxic
